# Source: ChEMBL document CHEMBL5375948, “Development and Pharmacochemical Characterization Discover a Novel Brain-Permeable HDAC11-Selective Inhibitor with Therapeutic Potential by Regulating Neuroinflammation in Mice” (J Med Chem, 2023)
# How the values were obtained:
# Histone deacetylase 2 = Histone deacetylase 2 (Homo sapiens, UniProt Q92769); assay: Inhibition of recombinant full-length human HDAC2 using FITC-H3K27(Ac)-NH2 as substrate by electrophoretic mobility shift assay
# Histone deacetylase 1 = Histone deacetylase 1 (Homo sapiens, UniProt Q13547); assay: Inhibition of recombinant full-length human HDAC1 using FITC-H3K27(Ac)-NH2 as substrate by electrophoretic mobility shift assay
# [1] = target: T1, Polyamine deacetylase HDAC10 (Homo sapiens, UniProt Q969S8); assay: Inhibition of recombinant full-length human HDAC10 using FITC-H3K27(Ac)-NH2 as substrate by electrophoretic mobility shift assay
# T1 sequence (Q969S8 whole entry): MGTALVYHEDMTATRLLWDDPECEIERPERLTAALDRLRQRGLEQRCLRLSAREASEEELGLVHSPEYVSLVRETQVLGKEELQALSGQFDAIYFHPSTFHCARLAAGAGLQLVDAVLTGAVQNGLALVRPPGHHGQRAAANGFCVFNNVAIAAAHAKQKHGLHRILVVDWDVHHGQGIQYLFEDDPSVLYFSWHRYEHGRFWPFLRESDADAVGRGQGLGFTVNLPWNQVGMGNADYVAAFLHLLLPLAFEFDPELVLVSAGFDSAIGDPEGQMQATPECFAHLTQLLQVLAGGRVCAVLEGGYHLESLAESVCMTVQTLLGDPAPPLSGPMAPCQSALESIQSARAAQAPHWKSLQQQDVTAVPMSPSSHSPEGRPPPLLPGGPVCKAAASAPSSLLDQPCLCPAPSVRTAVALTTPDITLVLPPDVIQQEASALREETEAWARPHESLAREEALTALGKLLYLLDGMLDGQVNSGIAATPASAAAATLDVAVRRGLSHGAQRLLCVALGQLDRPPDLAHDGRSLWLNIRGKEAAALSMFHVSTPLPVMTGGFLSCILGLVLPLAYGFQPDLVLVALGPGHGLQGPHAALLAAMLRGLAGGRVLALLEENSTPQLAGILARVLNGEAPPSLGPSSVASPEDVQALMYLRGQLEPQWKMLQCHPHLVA
# Histone deacetylase 5 = Histone deacetylase 5 (Homo sapiens, UniProt Q9UQL6); assay: Inhibition of recombinant full-length human HDAC5 using FAM-RHKK (trifluor-Ac)-NH2 as substrate by electrophoretic mobility shift assay
# Histone deacetylase 3 = Histone deacetylase 3 (Homo sapiens, UniProt O15379)
# Description: Inhibition of recombinant full-length human HDAC3 using FAM-RHKK(Ac)-NH2 as substrate by electrophoretic mobility shift assay
# [2] = target: T2, Protein deacetylase HDAC6 (Homo sapiens, UniProt Q9UBN7); assay: Inhibition of recombinant full-length human HDAC6 using FAM-RHKK(Ac)-NH2 as substrate by electrophoretic mobility shift assay
# T2 sequence (Q9UBN7 whole entry): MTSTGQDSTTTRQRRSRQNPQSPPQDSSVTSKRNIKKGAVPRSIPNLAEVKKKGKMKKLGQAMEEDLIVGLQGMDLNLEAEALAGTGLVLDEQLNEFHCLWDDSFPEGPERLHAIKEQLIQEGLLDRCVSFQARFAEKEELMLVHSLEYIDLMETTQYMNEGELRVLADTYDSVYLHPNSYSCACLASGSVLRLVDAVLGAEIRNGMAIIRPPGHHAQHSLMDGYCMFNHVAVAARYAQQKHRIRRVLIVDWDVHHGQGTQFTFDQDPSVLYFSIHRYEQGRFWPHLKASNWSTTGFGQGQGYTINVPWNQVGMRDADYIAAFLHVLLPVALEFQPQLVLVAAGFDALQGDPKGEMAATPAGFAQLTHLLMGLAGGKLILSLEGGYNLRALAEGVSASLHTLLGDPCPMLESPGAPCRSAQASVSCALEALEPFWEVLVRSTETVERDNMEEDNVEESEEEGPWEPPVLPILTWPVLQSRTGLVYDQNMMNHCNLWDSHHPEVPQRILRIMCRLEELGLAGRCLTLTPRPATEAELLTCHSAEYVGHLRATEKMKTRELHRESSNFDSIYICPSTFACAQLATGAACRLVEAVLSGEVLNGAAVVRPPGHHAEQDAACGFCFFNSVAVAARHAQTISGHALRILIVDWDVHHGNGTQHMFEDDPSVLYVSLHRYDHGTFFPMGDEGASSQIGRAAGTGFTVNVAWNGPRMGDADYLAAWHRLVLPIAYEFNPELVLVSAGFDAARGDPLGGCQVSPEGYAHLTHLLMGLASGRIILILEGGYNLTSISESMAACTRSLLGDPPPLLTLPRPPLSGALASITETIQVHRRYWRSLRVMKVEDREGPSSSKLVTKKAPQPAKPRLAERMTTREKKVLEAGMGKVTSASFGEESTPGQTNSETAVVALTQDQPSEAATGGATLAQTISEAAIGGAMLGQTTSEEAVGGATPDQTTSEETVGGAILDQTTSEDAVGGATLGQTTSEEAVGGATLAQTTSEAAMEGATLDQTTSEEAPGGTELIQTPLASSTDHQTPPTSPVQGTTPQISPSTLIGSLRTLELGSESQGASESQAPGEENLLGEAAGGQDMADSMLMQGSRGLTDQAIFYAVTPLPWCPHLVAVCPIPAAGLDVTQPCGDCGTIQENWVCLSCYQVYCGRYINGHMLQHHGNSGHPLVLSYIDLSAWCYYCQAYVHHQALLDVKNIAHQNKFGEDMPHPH
# Histone deacetylase 11 = target: T3, Histone deacetylase 11 (Homo sapiens, UniProt Q96DB2); assay: Inhibition of recombinant full-length human HDAC11 using FAM-RHKK (trifluor-Ac)-NH2 as substrate by electrophoretic mobility shift assay
# T3 sequence (Q96DB2 whole entry): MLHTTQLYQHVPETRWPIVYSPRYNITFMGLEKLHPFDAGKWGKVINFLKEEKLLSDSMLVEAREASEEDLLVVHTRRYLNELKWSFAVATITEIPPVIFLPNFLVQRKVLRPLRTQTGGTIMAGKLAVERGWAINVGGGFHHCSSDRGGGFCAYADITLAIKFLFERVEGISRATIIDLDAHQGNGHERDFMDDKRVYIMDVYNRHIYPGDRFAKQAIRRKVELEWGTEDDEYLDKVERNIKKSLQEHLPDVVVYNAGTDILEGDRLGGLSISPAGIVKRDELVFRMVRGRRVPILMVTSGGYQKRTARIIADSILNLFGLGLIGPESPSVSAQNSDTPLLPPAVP
# Histone deacetylase 9 = Histone deacetylase 9 (Homo sapiens, UniProt Q9UKV0); assay: Inhibition of recombinant full-length human HDAC9 using FAM-RHKK (trifluor-Ac)-NH2 as substrate by electrophoretic mobility shift assay
# Histone deacetylase 8 = target: T4, Histone deacetylase 8 (Homo sapiens, UniProt Q9BY41); assay: Inhibition of recombinant full-length human HDAC8 using FAM-RHKK(Ac)-NH2 as substrate by electrophoretic mobility shift assay
# T4 sequence (Q9BY41 whole entry): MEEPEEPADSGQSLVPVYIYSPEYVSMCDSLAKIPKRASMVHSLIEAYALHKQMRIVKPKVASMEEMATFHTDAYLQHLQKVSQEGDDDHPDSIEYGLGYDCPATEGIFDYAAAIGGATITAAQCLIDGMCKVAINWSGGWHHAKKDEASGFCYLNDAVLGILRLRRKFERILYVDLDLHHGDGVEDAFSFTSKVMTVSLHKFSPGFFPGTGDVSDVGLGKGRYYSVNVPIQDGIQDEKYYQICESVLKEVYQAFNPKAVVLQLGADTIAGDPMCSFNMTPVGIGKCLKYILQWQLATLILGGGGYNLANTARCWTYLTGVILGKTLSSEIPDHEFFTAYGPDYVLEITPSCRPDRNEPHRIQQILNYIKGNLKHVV
# Histone deacetylase 4 = Histone deacetylase 4 (Homo sapiens, UniProt P56524); assay: Inhibition of recombinant full-length human HDAC4 using FAM-RHKK (trifluor-Ac)-NH2 as substrate by electrophoretic mobility shift assay
# Histone deacetylase 7 = target: T5, Histone deacetylase 7 (Homo sapiens, UniProt Q8WUI4); assay: Inhibition of recombinant full-length human HDAC7 using FAM-RHKK (trifluor-Ac)-NH2 as substrate by electrophoretic mobility shift assay
# T5 sequence (Q8WUI4 whole entry): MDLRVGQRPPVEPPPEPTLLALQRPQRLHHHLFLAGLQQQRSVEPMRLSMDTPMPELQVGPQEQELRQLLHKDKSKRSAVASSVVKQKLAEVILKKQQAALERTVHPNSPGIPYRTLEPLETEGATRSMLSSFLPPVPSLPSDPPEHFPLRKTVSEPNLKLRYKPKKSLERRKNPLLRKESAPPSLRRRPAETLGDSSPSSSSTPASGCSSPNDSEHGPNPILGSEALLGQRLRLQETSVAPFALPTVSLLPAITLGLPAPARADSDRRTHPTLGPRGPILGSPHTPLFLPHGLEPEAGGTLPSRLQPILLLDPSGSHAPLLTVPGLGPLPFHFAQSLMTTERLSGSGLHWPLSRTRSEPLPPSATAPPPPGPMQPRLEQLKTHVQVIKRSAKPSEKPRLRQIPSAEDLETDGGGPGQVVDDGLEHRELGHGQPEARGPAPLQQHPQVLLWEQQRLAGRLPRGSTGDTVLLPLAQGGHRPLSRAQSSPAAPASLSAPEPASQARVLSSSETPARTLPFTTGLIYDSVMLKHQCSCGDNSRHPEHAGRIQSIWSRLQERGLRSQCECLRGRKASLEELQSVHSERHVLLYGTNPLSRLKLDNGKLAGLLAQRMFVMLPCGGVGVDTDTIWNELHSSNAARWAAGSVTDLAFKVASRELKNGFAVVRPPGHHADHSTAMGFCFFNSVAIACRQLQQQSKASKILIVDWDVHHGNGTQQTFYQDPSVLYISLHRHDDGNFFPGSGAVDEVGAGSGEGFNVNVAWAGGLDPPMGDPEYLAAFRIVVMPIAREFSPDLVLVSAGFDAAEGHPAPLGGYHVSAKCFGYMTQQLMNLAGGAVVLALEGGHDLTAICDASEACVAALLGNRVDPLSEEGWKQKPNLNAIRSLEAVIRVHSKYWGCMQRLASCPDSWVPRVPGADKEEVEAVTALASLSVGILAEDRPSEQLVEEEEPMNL
# Sequence of Histone deacetylase 4 (P56524 whole entry): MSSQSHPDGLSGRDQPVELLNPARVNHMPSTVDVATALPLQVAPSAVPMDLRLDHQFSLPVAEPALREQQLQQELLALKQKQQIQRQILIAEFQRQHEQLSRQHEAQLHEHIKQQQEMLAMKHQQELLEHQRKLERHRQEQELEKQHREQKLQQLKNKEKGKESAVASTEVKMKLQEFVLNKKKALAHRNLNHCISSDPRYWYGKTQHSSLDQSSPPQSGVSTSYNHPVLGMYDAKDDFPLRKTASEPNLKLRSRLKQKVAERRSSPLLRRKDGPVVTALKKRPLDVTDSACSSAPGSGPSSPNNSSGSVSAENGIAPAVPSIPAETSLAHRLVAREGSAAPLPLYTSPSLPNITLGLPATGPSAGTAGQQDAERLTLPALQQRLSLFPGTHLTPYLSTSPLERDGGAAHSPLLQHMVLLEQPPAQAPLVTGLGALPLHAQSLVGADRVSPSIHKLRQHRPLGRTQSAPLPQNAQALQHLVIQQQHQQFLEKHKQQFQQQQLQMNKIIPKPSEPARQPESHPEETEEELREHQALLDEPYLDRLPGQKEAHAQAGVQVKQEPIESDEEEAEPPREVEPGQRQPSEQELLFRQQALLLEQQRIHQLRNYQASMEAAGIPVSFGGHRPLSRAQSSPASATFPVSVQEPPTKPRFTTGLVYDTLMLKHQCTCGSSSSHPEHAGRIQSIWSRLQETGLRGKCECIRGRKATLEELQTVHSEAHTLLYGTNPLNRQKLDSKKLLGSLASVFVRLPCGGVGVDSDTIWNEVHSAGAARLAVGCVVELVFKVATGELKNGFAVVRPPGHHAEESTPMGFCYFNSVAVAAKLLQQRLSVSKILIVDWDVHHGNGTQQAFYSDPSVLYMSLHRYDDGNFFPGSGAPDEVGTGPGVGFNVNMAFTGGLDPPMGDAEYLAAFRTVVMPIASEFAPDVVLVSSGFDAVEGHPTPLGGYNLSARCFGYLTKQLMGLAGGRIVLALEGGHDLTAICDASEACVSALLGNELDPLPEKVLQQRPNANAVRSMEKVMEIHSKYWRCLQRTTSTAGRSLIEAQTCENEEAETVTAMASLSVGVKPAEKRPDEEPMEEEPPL
# Sequence of Histone deacetylase 9 (Q9UKV0 whole entry): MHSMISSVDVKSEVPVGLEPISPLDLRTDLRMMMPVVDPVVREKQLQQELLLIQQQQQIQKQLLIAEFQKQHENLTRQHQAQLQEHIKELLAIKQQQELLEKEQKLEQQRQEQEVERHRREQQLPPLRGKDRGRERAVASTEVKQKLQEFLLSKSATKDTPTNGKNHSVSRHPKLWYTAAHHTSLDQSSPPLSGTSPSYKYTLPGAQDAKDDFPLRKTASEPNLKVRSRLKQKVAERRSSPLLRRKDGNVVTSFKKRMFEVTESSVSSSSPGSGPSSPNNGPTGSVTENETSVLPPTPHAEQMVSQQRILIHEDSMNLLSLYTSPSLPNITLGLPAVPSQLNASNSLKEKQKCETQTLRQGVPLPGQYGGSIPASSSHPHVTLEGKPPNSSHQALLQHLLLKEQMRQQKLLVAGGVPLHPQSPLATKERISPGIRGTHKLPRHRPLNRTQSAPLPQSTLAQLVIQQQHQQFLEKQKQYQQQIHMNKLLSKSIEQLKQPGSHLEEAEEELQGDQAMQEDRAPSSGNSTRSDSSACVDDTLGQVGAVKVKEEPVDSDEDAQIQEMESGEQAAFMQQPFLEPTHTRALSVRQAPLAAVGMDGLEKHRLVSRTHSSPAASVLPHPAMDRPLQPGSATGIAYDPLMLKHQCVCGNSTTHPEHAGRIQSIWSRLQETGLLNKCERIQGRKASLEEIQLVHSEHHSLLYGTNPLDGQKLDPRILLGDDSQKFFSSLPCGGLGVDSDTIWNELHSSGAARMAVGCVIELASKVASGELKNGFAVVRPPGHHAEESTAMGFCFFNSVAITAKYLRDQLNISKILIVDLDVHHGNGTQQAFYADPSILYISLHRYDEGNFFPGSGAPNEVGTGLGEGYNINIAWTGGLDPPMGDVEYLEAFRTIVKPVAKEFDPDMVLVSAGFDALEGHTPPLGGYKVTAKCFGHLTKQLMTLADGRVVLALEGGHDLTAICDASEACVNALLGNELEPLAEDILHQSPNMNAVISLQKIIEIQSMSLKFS
# Sequence of Histone deacetylase 2 (Q92769 whole entry): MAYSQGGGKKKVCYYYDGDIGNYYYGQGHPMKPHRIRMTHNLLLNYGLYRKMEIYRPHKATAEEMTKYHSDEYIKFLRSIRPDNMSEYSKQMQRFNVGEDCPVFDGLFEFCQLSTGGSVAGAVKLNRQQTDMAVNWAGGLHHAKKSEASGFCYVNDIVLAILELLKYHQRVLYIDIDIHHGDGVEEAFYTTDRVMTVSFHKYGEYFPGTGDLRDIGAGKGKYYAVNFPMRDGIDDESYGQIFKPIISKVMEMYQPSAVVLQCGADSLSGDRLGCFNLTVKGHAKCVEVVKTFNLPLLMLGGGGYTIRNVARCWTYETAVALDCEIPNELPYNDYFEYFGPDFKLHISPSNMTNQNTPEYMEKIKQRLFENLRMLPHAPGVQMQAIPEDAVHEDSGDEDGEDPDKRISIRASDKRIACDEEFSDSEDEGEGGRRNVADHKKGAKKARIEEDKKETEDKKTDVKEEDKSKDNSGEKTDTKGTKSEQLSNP
# Sequence of Histone deacetylase 5 (Q9UQL6 whole entry): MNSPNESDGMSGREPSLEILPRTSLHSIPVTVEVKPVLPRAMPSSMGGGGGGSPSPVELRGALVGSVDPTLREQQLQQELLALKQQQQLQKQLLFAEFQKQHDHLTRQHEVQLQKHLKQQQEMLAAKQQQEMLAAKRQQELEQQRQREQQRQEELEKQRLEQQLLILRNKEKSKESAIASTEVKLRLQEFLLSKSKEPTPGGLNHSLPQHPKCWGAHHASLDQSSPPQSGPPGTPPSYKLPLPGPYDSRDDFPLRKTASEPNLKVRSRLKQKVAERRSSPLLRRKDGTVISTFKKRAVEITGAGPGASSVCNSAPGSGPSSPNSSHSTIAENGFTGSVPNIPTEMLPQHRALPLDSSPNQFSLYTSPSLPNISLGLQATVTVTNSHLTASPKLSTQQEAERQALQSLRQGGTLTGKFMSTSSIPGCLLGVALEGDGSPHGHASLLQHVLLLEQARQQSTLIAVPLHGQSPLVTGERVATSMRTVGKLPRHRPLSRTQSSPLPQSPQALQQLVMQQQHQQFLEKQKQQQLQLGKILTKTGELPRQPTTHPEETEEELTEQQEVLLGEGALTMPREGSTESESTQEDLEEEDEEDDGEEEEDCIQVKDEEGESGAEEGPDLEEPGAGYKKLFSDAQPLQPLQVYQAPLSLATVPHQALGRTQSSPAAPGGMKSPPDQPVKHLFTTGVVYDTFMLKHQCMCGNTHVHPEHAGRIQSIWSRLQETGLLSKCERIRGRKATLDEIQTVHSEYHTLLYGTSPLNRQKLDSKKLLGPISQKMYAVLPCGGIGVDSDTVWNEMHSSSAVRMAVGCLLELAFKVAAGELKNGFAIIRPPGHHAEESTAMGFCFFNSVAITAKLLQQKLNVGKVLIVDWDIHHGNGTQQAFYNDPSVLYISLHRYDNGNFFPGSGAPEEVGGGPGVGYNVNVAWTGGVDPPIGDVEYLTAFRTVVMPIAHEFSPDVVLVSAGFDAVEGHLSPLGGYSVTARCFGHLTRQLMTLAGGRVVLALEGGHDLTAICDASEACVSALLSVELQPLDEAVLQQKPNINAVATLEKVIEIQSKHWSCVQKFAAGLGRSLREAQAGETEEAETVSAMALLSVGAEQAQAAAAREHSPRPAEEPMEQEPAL
# Sequence of Histone deacetylase 3 (O15379 whole entry): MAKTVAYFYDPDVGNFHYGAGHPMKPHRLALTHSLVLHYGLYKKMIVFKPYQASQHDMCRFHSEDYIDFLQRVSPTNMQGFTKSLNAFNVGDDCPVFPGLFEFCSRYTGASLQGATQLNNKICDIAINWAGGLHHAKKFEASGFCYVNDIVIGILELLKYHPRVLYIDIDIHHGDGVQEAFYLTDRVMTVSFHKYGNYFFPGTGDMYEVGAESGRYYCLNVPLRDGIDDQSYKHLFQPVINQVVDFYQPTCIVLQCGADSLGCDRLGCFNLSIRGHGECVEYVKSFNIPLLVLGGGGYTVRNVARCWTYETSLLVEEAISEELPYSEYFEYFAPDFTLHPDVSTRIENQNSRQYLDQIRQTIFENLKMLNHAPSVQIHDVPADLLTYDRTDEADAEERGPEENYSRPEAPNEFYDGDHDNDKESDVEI
# Sequence of Histone deacetylase 1 (Q13547 whole entry): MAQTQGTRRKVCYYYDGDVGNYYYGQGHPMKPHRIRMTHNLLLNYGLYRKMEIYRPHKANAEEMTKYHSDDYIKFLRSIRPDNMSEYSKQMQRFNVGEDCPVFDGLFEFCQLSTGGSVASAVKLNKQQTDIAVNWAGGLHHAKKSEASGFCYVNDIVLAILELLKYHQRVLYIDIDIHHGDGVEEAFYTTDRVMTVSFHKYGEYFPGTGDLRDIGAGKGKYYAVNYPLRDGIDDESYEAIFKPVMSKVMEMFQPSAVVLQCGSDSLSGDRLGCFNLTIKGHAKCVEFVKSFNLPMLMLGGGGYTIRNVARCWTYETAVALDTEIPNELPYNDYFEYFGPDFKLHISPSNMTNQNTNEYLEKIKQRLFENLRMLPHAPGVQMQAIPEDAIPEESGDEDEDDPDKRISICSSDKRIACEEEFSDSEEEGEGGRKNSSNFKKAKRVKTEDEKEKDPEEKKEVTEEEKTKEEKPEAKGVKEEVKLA
Structure (SMILES),IC50 (Histone deacetylase 2),IC50 (Histone deacetylase 1),IC50 [1],IC50 (Histone deacetylase 5),IC50 (Histone deacetylase 3),IC50 [2],IC50 (Histone deacetylase 11),IC50 (Histone deacetylase 9),IC50 (Histone deacetylase 8),IC50 (Histone deacetylase 4),IC50 (Histone deacetylase 7)
O=C(NCC12C[C@H]3C[C@@H](C1)C[C@@H](C2)C3)c1ccc2c(ccn2Cc2ccc(C(=O)NO)c(O)c2)c1,> 10000 nM,> 10000 nM,> 10000 nM,7250 nM,8120 nM,,,,,,
COc1cc(CN(C)CC23CC4CC(CC(C4)C2)C3)ccc1C(=O)NO,,,,,,> 10000 nM,> 10000 nM,,,,
O=C(NCC12C[C@H]3C[C@@H](C1)C[C@@H](C2)C3)c1ccc2c(ccn2Cc2ccc(C(=O)NO)c(Br)c2)c1,> 10000 nM,7320 nM,8970 nM,,2230 nM,,,9310 nM,,,
COc1cc(C(=O)NCC23CC4CC(CC(C4)C2)C3)ccc1C(=O)NO,,,,,,,8890 nM,,,,
COc1cc(C(=O)NO)ccc1Cn1ccc2cc(C(=O)NCC34C[C@H]5C[C@@H](C3)C[C@@H](C4)C5)ccc21,> 10000 nM,> 10000 nM,> 10000 nM,1880 nM,1330 nM,640 nM,93 nM,2840 nM,160 nM,3040 nM,
Cc1cc(Cn2ccc3cc(C(=O)NCC45C[C@H]6C[C@@H](C4)C[C@@H](C5)C6)ccc32)ccc1C(=O)NO,> 10000 nM,> 10000 nM,> 10000 nM,,> 10000 nM,,350 nM,,2060 nM,> 10000 nM,
O=C(NCC12C[C@H]3C[C@@H](C1)C[C@@H](C2)C3)c1ccc2c(ccn2Cc2ccc(C(=O)NO)c(Cl)c2)c1,> 10000 nM,> 10000 nM,9050 nM,,,220 nM,140 nM,4530 nM,410 nM,,570 nM
CCCNNC(=O)c1ccc(Cn2ccc3cc(C(=O)NCC45C[C@H]6C[C@@H](C4)C[C@@H](C5)C6)ccc32)cc1,,,,,,,2610 nM,,,,
CCOc1cc(Cn2ccc3cc(C(=O)NCC45C[C@H]6C[C@@H](C4)C[C@@H](C5)C6)ccc32)ccc1C(=O)NO,> 10000 nM,> 10000 nM,> 10000 nM,,,,250 nM,> 10000 nM,> 10000 nM,> 10000 nM,4030 nM
O=C(NO)c1ccc(Cn2ccc3cc(C(=O)NCC45C[C@H]6C[C@@H](C4)C[C@@H](C5)C6)ccc32)cc1,1900 nM,880 nM,> 10000 nM,> 10000 nM,980 nM,,480 nM,5250 nM,1950 nM,1090 nM,
O=C(NO)c1ccc(Cn2ccc3cc(C(=O)NCC45C[C@H]6C[C@@H](C4)C[C@@H](C5)C6)ccc32)c(F)c1,1020 nM,190 nM,230 nM,> 10000 nM,690 nM,8 nM,,2090 nM,,1120 nM,
COc1cc(CN(C)CCC23CC4CC(CC(C4)C2)C3)ccc1C(=O)NO,,,,,,> 10000 nM,4210 nM,,,,
O=C(NCC12C[C@H]3C[C@@H](C1)C[C@@H](C2)C3)c1ccc2c(ccn2Cc2ccc(C(=O)NO)c(F)c2)c1,3400 nM,,600 nM,,180 nM,,79 nM,,,,
